In US9446145B2, “Curcumin-antibody conjugates as anti-cancer agents” (priority 2009, dated 2016):

Tests used:
B16F10 melanoma cells = assay: B16F10 melanoma cell death IC50 (live cell counts 24 h after treatment); format: cell-based; conditions: Mus musculus, B16-F10, 24 h, free/solubilized curcumin, read-out: IC50 (concentration required for 50% B16F10 melanoma cell death)
Procedure: (§1) B16F10 melanoma cells were plated in a 96-well tissue culture plate with 2,000 cells in 50 μl of medium (DMEM+10% fetal bovine serum+1% penicillin-streptomycin) per well. After 24 hours, the targeted curcumin derivative (linked to 633 dye) was administered in a range of concentrations-10 nM, 20 nM, 30 nM, 50 nM, 100 nM. The product was diluted in neurobasal medium (+1% penicillin-streptomycin, 1% 1-glutamine, 2% B27 supplement), with 50 μl per well, and 2 wells per concentration. Control wells were treated with corresponding concentrations of free MUC18 antibody coupled to 633 dye. The plate was imaged after 24 hours using visible light and fluorescent microscopes. Using cell counts from four frames per well, the mean live cell number and mean standard deviation for each concentration (and its corresponding control) were found. The data was compiled and graphed on Kaleida Graph. […] See below. Each corresponding control well received the same amount of curcumin-free Mel-CAM-Dylight800.
Determined using same methods as step 1a. Dilution of 100 nM, 200 nM, 300 nM, 400 nM, 500 nM, 1 μM, 10 μM, 20 μM, 30 μM, 40 μM, and 50 μM were made using a 40 mM stock solution of curcumin in DMSO. Curcumin IC50 was compared to curc-MUC18 IC50 using Kaleida Graph.

GL261 glioblastoma cells = assay: GL261 glioblastoma cell killing IC50 (same approach as for B16F10); format: cell-based; conditions: Mus musculus, solubilized non-targeted curcumin
Procedure: as §1
The same approach used for the B16F10 melanoma cells (see above) was next used for the glioblastoma GL261 cells by attaching curcumin to an antibody against the […] antigen, which is expressed on the surface of grade III/IV glioblastoma (Strik, H. M., et al., Galectin-3: Cellular Distribution and Correlation with WHO-grade in Human Gliomas. Journal of Neuro-Oncology, 53(1): p. 13-20 (2001)). […]

## COc1cc(C=CC(=O)CC(=O)C=Cc2ccc(O)c(OC)c2)ccc1O [curcumin, 1,7-bis(4-hydroxy-3-methoxyphenyl)-1,6-heptadiene-3,5-dione]
B16F10 melanoma cells
  IC50: 15 µM
GL261 glioblastoma cells
  IC50: 10 µM
